Data: patent US9045445B2, “Glycine transporter-1 inhibitors, methods of making them, and uses thereof” (Albany Molecular Research, Inc., priority 2010, dated 2015)
Where a name gives a salt, the structure may show the parent alone.

The compounds below were run against T1, glycine transporter-1 (GlyT-1) (Homo sapiens, UniProt P48067) (assay: [14C]glycine uptake assay in JAR cells endogenously expressing GlyT-1 (scintillation proximity)). Settings: JAR cells, [14C]glycine 5 μM, 3 hour incubation; read-out: GlyT-1 IC50.
T1 construct: JAR cells (ATCC#HTB-144), which endogenously express GlyT-1; host or cells: JAR human choriocarcinoma cells
T1 sequence (P48067 1-706): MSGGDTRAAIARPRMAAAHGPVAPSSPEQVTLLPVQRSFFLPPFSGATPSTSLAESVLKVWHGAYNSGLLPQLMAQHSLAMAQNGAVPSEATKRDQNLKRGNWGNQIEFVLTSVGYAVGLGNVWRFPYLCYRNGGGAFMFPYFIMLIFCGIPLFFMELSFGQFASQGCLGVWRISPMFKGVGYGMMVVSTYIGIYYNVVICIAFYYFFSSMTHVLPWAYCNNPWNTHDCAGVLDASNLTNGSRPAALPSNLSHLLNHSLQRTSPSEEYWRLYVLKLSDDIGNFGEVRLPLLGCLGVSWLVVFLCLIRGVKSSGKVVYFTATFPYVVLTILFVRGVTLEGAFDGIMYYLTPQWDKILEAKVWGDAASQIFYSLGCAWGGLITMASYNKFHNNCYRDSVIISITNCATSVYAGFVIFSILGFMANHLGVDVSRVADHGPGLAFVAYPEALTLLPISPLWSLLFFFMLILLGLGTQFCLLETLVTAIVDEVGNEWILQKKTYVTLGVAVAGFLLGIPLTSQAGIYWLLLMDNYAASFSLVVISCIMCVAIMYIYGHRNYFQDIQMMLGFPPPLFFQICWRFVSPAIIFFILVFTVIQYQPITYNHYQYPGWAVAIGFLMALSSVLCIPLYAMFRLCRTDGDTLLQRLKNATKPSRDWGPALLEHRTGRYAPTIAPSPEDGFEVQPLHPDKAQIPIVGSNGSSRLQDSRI
Format: cell-based
Outline: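 IC50 comes from a four-parameter fit of nine-point, duplicate curves measuring inhibition of 5 μM [14C]glycine uptake, read by scintillation proximity after 3 h at 37 °C. Cells are human JAR, which express GlyT-1 endogenously, given 10 min compound pre-treatment in pH 7.4 buffer with 5 mM alanine and 0.75% DMSO.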

Row | Compound | IC50
1 | CCC(F)S(=O)(=O)N1CCN(C2(CNC(=O)c3ccc(C(F)(F)F)cc3Cl)CCC(F)(F)CC2)CC1 (stereo not drawn) [compound 244, 2-Chloro-N-((4,4-difluoro-l-(4-(1-fluoropropylsulfonyl)piperazin-1-yl)cyclohexyl)methyl)-4-(trifluoromethyl)benzamide Hydrochloride] | 51 nM
2 | CCCS(=O)(=O)N1CCN(C2(CNC(=O)c3ccc(C4CC4)cc3Cl)CCC(F)(F)CC2)CC1 [compound 247, 2-Chloro-4-cyclopropyl-N-((4,4-difluoro-1-(4-(propylsulfonyl)piperazin-1-yl)cyclohexyl)methyl) benzamide Hydrochloride] | 37 nM
3 | CCCS(=O)(=O)N1CCN(C2(CNC(=O)c3cc(C(F)(F)F)ccc3C(F)(F)F)CCC(F)(F)CC2)CC1 [compound 248, N-((4,4-Difluoro-1-(4-(propylsulfonyl)piperazin-1-yl)cyclohexyl)methyl)-2,5-bis(trifluoromethyl) benzamide Hydrochloride] | 159 nM
4 | CCCS(=O)(=O)N1CCN(C2(CNC(=O)c3ccc(Cl)cc3OC(F)F)CCC(F)(F)CC2)CC1 [compound 249, 4-Chloro-N-((4,4-difluoro-1-(4-(propylsulfonyl)piperazin-1-yl)cyclohexyl)methyl)-2-(difluoromethoxy) benzamide Hydrochloride] | 37 nM
5 | CCCS(=O)(=O)N1CCN(C2(CNC(=O)c3c(F)cccc3OC(F)F)CCC(F)(F)CC2)CC1 [compound 250, N-((4,4-Difluoro-1-(4-(propylsulfonyl)piperazin-1-yl)cyclohexyl)methyl)-2-(difluoromethoxy)-6-fluorobenzamide Hydrochloride] | 24 nM
6 | CCC(F)(F)S(=O)(=O)N1CCN(C2(CNC(=O)c3ccc(C(F)(F)F)cc3Cl)CCC(F)(F)CC2)CC1 [compound 251, 2-Chloro-N-((1-(4-(1,1-difluoropropylsulfonyl)piperazin-1-yl)-4,4-difluorocyclohexyl)methyl)-4-(trifluoromethyl) benzamide Hydrochloride] | 987 nM
7 | CCCS(=O)(=O)N1CCN(C2(CNC(=O)c3c(F)cc(Cl)cc3Cl)CCC(F)(F)CC2)CC1 [compound 255, 2,4-Dichloro-N-((4,4-difluoro-1-(4-(propylsulfonyl)piperazin-1-yl)cyclohexyl)methyl)-6-Fluorobenzamide Hydrochloride] | 14 nM
8 | CCCS(=O)(=O)N1CCN(C2(CNC(=O)c3c(F)ccc(C(F)(F)F)c3F)CCC(F)(F)CC2)CC1 [compound 262, N-((4,4-Difluoro-1-(4-(propylsulfonyl)piperazin-1-yl)cyclohexyl)methyl)-2,6-difluoro-3-(trifluoromethyl)benzamide Hydrochloride] | 223 nM
9 | CCCS(=O)(=O)N1CCN(C2(CNC(=O)c3c(Cl)ccc(C(F)(F)F)c3Cl)CCC(F)(F)CC2)CC1 [compound 265, 2,6-Dichloro-N-((4,4-difluoro-1-(4-(propylsulfonyl)piperazin-1-yl)cyclohexyl)methyl)-3-(trifluoromethyl) benzamide Hydrochloride] | 228 nM
10 | CCCS(=O)(=O)N1CCN(C2(CNC(=O)c3c(F)cccc3F)CCCOCC2)CC1 (stereo not shown) [compound 268, 2,6-Difluoro-N-((4-(4-(propylsulfonyl)piperazin-1-yl)oxepan-4-yl)methyl)benzamide Hydrochloride] | 238 nM
11 | O=C(NCC1(N2CCN(S(=O)(=O)c3cccnc3)CC2)CCC(F)(F)CC1)c1c(F)cccc1F [compound 269, N-((4,4-Difluoro-1-(4-(pyridin-3-ylsulfonyl)piperazin-1-yl)cyclohexyl)methyl)-2,6-difluorobenzamide Hydrochloride] | 817 nM
12 | O=C(NCC1(N2CCN(S(=O)(=O)N3CCC3)CC2)CCC(F)(F)CC1)c1ccc(C(F)(F)F)cc1Cl [compound 271, N-((1-(4-(azetidin-1-ylsulfonyl)piperazin-1-yl)-4,4difluorocyclohexyl)methyl)-2-chloro-4-(trifluoromethyl)benzamide Hydrochloride] | 350 nM
13 | O=C(NCC1(N2CCN(S(=O)(=O)N3CCC(F)(F)C3)CC2)CCC(F)(F)CC1)c1ccc(C(F)(F)F)cc1Cl [compound 272, 2-Chloro-N-((1-(4-(3,3-difluoropyrrolidin-1-ylsulfonyl)piperazin-1-yl)-4,4-difluorocyclohexyl)methyl)-4-(trifluoromethyl) benzamide Hydrochloride] | 1100 nM
14 | CN(C)S(=O)(=O)N1CCN(C2(CNC(=O)c3ccc(C(F)(F)F)cc3Cl)CCC(F)(F)CC2)CC1 [compound 273, 2-Chloro-N-((1-(4-(N,N-dimethylsulfamoyl)piperazin-1-yl)-4,4-difluorocyclohexyl)methyl)-4-(trifluoromethyl)benzamide Hydrochloride] | 350 nM
15 | Cn1cc(S(=O)(=O)N2CCN(C3(CNC(=O)c4ccc(C(F)(F)F)cc4C(F)(F)F)CCCC3)CC2)nn1 [compound 275, N-((1-(4-(1-Methyl-1H-1,2,3-triazol-4-ylsulfonyl)piperazin-1-yl)cyclopentyl)methyl)-2,4-bis(trifluoromethyl) benzamide Hydrochloride] | 7 nM
16 | Cn1cc(S(=O)(=O)N2CCN(C3(CNC(=O)c4ccc(C(F)(F)F)cc4C(F)(F)F)CCOCC3)CC2)nn1 [compound 276, N-((4-(4-(1-Methyl-1H-1,2,3-triazol-4-ylsulfonyl)piperazin-1-yl)tetrahydro-2H-pyran-4-yl)methyl)-2,4-bis(trifluoromethyl) benzamide Hydrochloride] | 7 nM
17 | CC(=O)CS(=O)(=O)N1CCN(C2(CNC(=O)c3ccc(C(F)(F)F)cc3Cl)CCC(F)(F)CC2)CC1 [compound 280, 2-Chloro-N-((4,4-difluoro-1-(4-(2-oxopropylsulfonyl)piper-azin-1-yl)cyclohexyl)methyl)-4-(trifluoromethyl) benzamide Hydrochloride] | 61 nM
18 | CC(NC(=O)c1ccc(C(F)(F)F)cc1Cl)C1(N2CCN(S(=O)(=O)c3cn(C)nn3)CC2)CCCC1 (stereo not shown) [compound 282, 2-Chloro-N-(1-(1-(4-(1-methyl-1H-1,2,3-triazol-4-ylsulfonyl)piperazin-1-yl)cyclopentyl)ethyl)-4-(trifluoromethyl)benzamide Hydrochloride] | 29 nM
19 | Cn1ccc(S(=O)(=O)N2CCN(C3(CNC(=O)c4ccc(C(F)(F)F)cc4Cl)CCC(F)(F)CC3)CC2)n1 [compound 283, 2-Chloro-N-((4,4-difluoro-1-(4-(1-methyl-1H-pyrazol-3-ylsulfonyl)piperazin-1-yl)cyclohexyl)methyl)-4-(trifluoromethyl)benzamide Hydrochloride] | 2410 nM
20 | N-((4,4-Difluoro-1-(1-(1- methyl-1H-1,2,3-triazol-4- ylsulfonyl)piperidin-4- yl)cyclohexyl)methyl)-2,4- bis(trifluoromethyl) benzamide [compound 274] | 3 nM

The compounds below were run against T2, glycine transporter-2 (GlyT-2) (Homo sapiens, UniProt Q9Y345) (assay: [14C]glycine uptake assay in HEK-GlyT-2 transfected cells). Settings: HEK-GlyT-2 cells.
T2 construct: expressed in transfected cells
T2 sequence (Q9Y345 1-797): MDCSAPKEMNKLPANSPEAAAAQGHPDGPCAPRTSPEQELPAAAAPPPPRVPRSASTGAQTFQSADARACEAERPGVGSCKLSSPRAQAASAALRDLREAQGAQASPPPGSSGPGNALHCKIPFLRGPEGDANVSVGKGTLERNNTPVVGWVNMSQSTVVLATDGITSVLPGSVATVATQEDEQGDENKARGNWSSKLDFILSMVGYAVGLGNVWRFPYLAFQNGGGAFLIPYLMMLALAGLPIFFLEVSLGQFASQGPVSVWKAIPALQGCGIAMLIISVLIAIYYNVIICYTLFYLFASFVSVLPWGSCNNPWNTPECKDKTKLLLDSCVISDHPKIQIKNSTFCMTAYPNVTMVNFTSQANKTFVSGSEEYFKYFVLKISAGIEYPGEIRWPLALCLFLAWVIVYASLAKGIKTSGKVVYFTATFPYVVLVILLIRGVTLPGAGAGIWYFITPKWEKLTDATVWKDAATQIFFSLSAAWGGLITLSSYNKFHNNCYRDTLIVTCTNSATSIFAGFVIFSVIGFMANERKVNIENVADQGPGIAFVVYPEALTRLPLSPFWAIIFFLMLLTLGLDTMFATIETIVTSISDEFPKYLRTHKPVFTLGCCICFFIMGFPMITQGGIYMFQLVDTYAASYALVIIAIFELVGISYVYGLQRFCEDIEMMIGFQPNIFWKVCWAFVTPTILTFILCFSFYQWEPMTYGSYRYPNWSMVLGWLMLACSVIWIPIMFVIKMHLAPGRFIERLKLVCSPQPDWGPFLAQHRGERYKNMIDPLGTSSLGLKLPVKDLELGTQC
Format: cell-based

Row | Compound | IC50
21 | CCCS(=O)(=O)N1CCN(C2(CNC(=O)c3ccccc3)CCCCC2)CC1 [compound 24, N-((1-(4-(Propylsulfonyl)piperazin-1-yl)cyclohexyl)methyl) benzamide Hydrochloride] | > 75000 nM
22 | CCCS(=O)(=O)N1CCN(C2(CNC(=O)c3ccc(Cl)cc3Cl)CCOCC2)CC1 [compound 118, 2,4-Dichloro-N-((4-(4-(propylsulfonyl)piperazin-1-yl)tetrahydro-2H-pyran-4-yl)methyl)benzamide Hydrochloride] | > 75000 nM
